Assay results as given in US10112918B2, “15-oxospiramilactone derivatives, preparation method and uses thereof” (Kunming Institute of Botany, The Chinese Academy of Sciences, priority 2013, dated 2018).
Like-named read-outs stand apart in the source and are kept apart here.

Assays:
Assay type in all cases: cell-based
[1] = tested on: HL-60 (human promyelocytic leukemia cells); assay: MTT inhibition of tumor cell growth, HL-60; details: Homo sapiens, HL-60, 48 h, Table 1, 7-hydroxy derivatives of S-3
Protocol: (§1) 1. Inoculating cells: the culture medium DMEM or RMPI1640 containing 10% fetal bovine serum was used to prepare a single cell suspension, and the cell suspension was inoculated to a 96-well plate at 5000-10000 cells per well (100 μl for each well); Adherent cells were inoculated and cultured for 12 h in advance. HL-60 (human promyelocytic leukemia cells), SMMC-7721 (human hepatoma cells), A-549 (Human lung adenocarcinoma cells), MCF-7 (human breast cancer cells), SW-480 (human colon cancer cells) were purchased from the Cell Bank of the Chinese Academy of Sciences, Shanghai.
(§2) 2. The solution of the compound to be tested (40 μM for primary screening; 5 concentrations were set for gradient re-screening for the compounds which achieve about 50% inhibition of tumor cell growth at 40 μM) was added, the final volume of each well was 200 μl, and triplicate wells were set for each test.
(§3) 3. Coloration: After culturing at 37° C. for 48 h, MTT solution (20 μl) was added to each well. After incubation for another 4 h, the culture was stopped. The supernatant in each well was pipetted and discarded, and 200 μl SDS solution (10%) was added to each well. Incubation was performed overnight (at 37° C.), to completely dissolve the crystal.
(§4) 4. Colorimetric assay: ELISA Reader (Bio-Rad 680) was used to obtain the light absorption for each well at a wavelength of 595 nm, the results were recorded. A cell growth curve was plotted with the concentration as abscissa and the cell survival percentage as ordinate. The two-point method (Reed and Muench method) was used to calculate the IC50 of the compound.

[2] = tested on: A-549 (Human lung adenocarcinoma cells); assay: MTT inhibition of tumor cell growth, A-549; details: Homo sapiens, A549, 48 h, Table 1, 7-hydroxy derivatives of S-3
Protocol: as §1, §2, §3, §4

[3] = tested on: SMMC-7721 (human hepatoma cells); assay: MTT inhibition of tumor cell growth, SMMC-7721; details: Homo sapiens, SMMC-7721, 48 h, Table 1, 7-hydroxy derivatives of S-3
Protocol: as §1, §2, §3, §4

[4] = tested on: MCF-7 (human breast cancer cells); assay: MTT inhibition of tumor cell growth, MCF-7; details: Homo sapiens, MCF7, 48 h, Table 1, 7-hydroxy derivatives of S-3
Protocol: as §1, §2, §3, §4

[5] = tested on: SW-480 (human colon cancer cells); assay: MTT inhibition of tumor cell growth, SW-480; details: Homo sapiens, SW480, 48 h, Table 1, 7-hydroxy derivatives of S-3, read-out: IC50 SW-480
Protocol: as §1, §2, §3, §4

[6] = tested on: Wnt signaling pathway (Top-Flash reporter gene); assay: Top-Flash Wnt reporter gene assay in HEK293T cells with Wnt3a conditioned medium; details: Homo sapiens, HEK-293T, 6 h, 6 h
Protocol: HEK293T cells were cultured in DMEM containing 10% fetal bovine serum (Invitrogen) at 37° C., 5% CO2. The cells were passaged every other day. The density was retained at 70˜80% during passage. L cell line (CRL-2647, purchased from the gene bank of ATCC, the US) and the control cell line (CRL-2648, purchased from ATCC, US), which stably secreted mouse Wnt3a protein, were cultured in DMEM containing 50 ug/ml G418 and 10% fetal bovine serum, at 37° C., 5% CO2. When the cells grew to a density of about 70%, the medium was replaced with DMEM containing 10% fetal bovine serum. After continuous culture for 4 days, the culture was collected and centrifuged, and the supernatant was kept so that the Wnt conditioned medium was obtained. After titration assay, the conditioned medium was quick-frozen in liquid nitrogen, and placed at −80° C. for long-term storage, so that the titer was kept unchanged.
The cells were seeded to a 48-well plate at a density of […] cells per well, and transfected 20 h later. The reagents for plasmid transfection were calculated based on the amount in each well of the 48-well plate as following: the total amount of plasmid was 125 ng/well; the plasmid was first added to a serum-free medium (25 μL/well) and mixed well; PLUS reagent (Invitrogen) was then added in an amount of 0.5 μL/well and mixed well, then stood for 15 min; Lipofectamine (Invitrogen) liposome was added in an amount of 0.5 μL/well to serum-free DMEM medium (25 μL/well), and then mixed with the solution containing the plasmid and the PLUS, and stood for 15 min. The cells were cultured in serum-free DMEM medium (100 μL/well), and the final mixture of plasmid, PLUS and Lipofectamine were added to the cells. After incubation for 3 h, the transfection was stopped by the medium containing 10% fetal bovine serum (200 μL/well).
The HEK293T cells used for activity assay of the report gene were transfected by the method as shown in 2). Activity assay of Wnt reporter gene: the amount of plasmid for transfection was 5 ng/well for TOP-flash and 5 ng/well for GFP plasmid as internal standard, with lacZ added to reach a total amount of 125 ng/well. […] After treating for 6 h, Boehringer Mannheim Luci-ferase Assay Kit was used to lyse cells (200 μL/well). 50 μL from each well was pipetted into a 96-well plate. The indensity of GFP protein in the cell lysate was measured by fluorimeter FL600 (BIO-TEK Inc. Winooski, Vt.), and taken as internal standard for cell transfection efficiency. 10 μL substrate of luciferase was then added to each well, and the activity of luciferase was measured by Micro Lumate Plus (Perkin Elmer Inc. Wellesley, Mass.) luminometer. Finally, GFP indensity was used as internal standard to calibrate the activity of luciferase, i.e. the activity of Wnt reporter gene.
Calculation of IC50 (taking the calculation of IC50 of the Wnt signaling pathway for example): background (the activity as measured in the groups treated with a conditioned medium containing DMSO only) was subtracted from the reporter gene activity as measured in the groups treated by Wnt3a conditioned medium with or without the compound to be tested at different concentrations; and the obtained value was defined as the activity of the reporter gene induced by Wnt or the residual activity of the reporter gene after adding the compound to be tested. The residual activity was normalized by the activity induced by Wnt to get the relative residual activity. Then combine with the concentrations of the compound to be tested to plot a linear graph, and a dose-effect curve was fitted based on 4-parameter logistic fit. IC50 of the Wnt signaling pathway is determined as the concentration at which the relative residual activity is 0.5.

[7] = Table 7 (second), derivatives modified on 7-hydroxyl of S-3, HEK293T, Wnt3a conditioned medium, read-out: IC50 (μM), inhibitory activity on the Wnt signaling pathway

IC50 [1] [µM]	IC50 [2] [µM]	IC50 [3] [µM]	IC50 [4] [µM]	IC50 [5] [µM]	IC50 [6, 7] [µM]	IC50 ([6]; Table 9, HEK293T, Wnt3a conditioned medium, read-out: IC50(μM), inhibitory activity on the Wnt signaling pathway) [µM]	Compound	IC50 ([6]; read-out: IC50 (μM), inhibitory activity on the Wnt signaling pathway) [µM]
2.39	2.18	1.67	2.74	1.96	18.3 ± 0.66	–	C=C1C(=O)[C@]23CC[C@H]1CC2[C@@]12CCC[C@@](C)(COC1=O)C2C[C@H]3OC=O (some centres unmarked) [Compound 1a]	–
1.46	2.83	3.6	3.48	3.44	14.2 ± 0.67	–	C=C1C(=O)[C@]23CC[C@H]1CC2[C@@]12CCC[C@@](C)(COC1=O)C2C[C@H]3OC(C)=O (some centres unmarked) [Compound 1b]	–
1.13	0.64	0.78	3.67	2.86	17.9 ± 0.98	–	C=C1C(=O)[C@]23CC[C@H]1CC2[C@@]12CCC[C@@](C)(COC1=O)C2C[C@H]3OC(=O)CCl (some centres unmarked) [Compound 1c]	–
1.05	0.5	1.23	3.47	3	28.8 ± 0.56	–	C=C1C(=O)[C@]23CC[C@H]1CC2[C@@]12CCC[C@@](C)(COC1=O)C2C[C@H]3OC(=O)CBr (some centres unmarked) [Compound 1d]	–
4.44	2.96	4.1	2.74	2.37	22.14 ± 0.1	–	C=C1C(=O)C23CC[C@H]1CC2[C@@]12CCC[C@@](C)(COC1=O)C2C[C@H]3OC(=O)CN=[N+]=[N-] (some centres unmarked) [Compound 1e]	–
5.72	6.08	13	2.74	7.81	20.2 ± 2.59	–	C=C1C(=O)C23CC[C@H]1CC2[C@@]12CCC[C@@](C)(COC1=O)C2C[C@H]3OC(=O)C(F)(F)F (some centres unmarked) [Compound 1f]	–
6.86	5.97	10.2	5.85	6.42	30 ± 2.22	–	C=CC(=O)O[C@@H]1CC2[C@@]3(C)CCC[C@@]2(C(=O)OC3)C2C[C@@H]3CCC21C(=O)C3=C (some centres unmarked) [Compound 1g]	–
4.59	2.61	3.5	2.7	3.38	20.2 ± 0.99	–	C=C1C(=O)C23CC[C@H]1CC2[C@@]12CCC[C@@](C)(COC1=O)C2C[C@H]3OC(=O)CCCl (some centres unmarked) [Compound 1h]	–
3.37	2.59	3.35	2.58	2.5	28.3 ± 2.76	–	C=C1C(=O)C23CC[C@H]1CC2[C@@]12CCC[C@@](C)(COC1=O)C2C[C@H]3OC(=O)[C@@H](C)Cl (some centres unmarked) [Compound 1i]	–
2.99	2.97	0.74	3.71	3.95	14.7 ± 0.18	–	C=C1C(=O)C23CC[C@H]1CC2[C@@]12CCC[C@@](C)(COC1=O)C2C[C@H]3OC(=O)c1ccccc1 (some centres unmarked) [Compound 1j]	–
0.86	1.05	2.89	0.8	0.69	10.7 ± 0.39	–	C=C1C(=O)C23CC[C@H]1CC2[C@@]12CCC[C@@](C)(COC1=O)C2C[C@H]3OC(=O)c1ccc([N+](=O)[O-])cc1 (some centres unmarked) [Compound 1k]	–
4.2	2.46	3.6	3.07	2.43	18.6 ± 1.48	–	C=C1C(=O)C23CC[C@H]1CC2[C@@]12CCC[C@@](C)(COC1=O)C2C[C@H]3OC(=O)c1ccc(OC)cc1 (some centres unmarked) [Compound 1l]	–
0.89	1.73	2.65	1.97	2.19	19 ± 1.61	–	C=C1C(=O)C23CC[C@H]1CC2[C@@]12CCC[C@@](C)(COC1=O)C2C[C@H]3OC(=O)c1ccc(C(F)(F)F)cc1 (some centres unmarked) [Compound 1m]	–
–	–	–	–	–	–	> 60	C=C1C(=O)[C@@]23CC[C@@H](CC2[C@@]24CCC[C@@](C)(COC2)C14)C1(CO1)C3=O (some centres unmarked) [Compound 29]	–
–	–	–	–	–	–	–	C=C1C(=O)C23CC[C@@H](CC2[C@@]24CCC[C@@](C)(COC2)C14)C(=C)[C@@H]3O (some centres unmarked) [Compound 33]	12.1 ± 1.25
